Measurements taken from patent US20220087970A1, “PREVENTION OF ANESTHETIC-INDUCED NEUROCOGNITIVE DYSFUNCTION” (The Johns Hopkins University, priority 2019, published 2022).

Key:
NR1 = assay: Western blot of hippocampal synaptic fractions: NR1; format: in vivo; conditions: one day after PND7 mice exposed to isoflurane (1.5% ISO in O2, 4 h)
Experimental: (§1) One day after PND7 mice were exposed to isoflurane (1.5% ISO in O2, 4 h), we harvested hippocampal tissues for Western blotting to assess the expression of receptors and MAGUKs. […] (N=9). A *p<0.05 was considered significant. […] Data shown as % actin;

NR2B = assay: Western blot of hippocampal synaptic fractions: NR2B; format: in vivo; conditions: one day after PND7 mice exposed to isoflurane (1.5% ISO in O2, 4 h)
Experimental: as §1

SAP102 = assay: Western blot of hippocampal synaptic fractions: SAP102; format: in vivo; conditions: one day after PND7 mice exposed to isoflurane (1.5% ISO in O2, 4 h)
Experimental: as §1

[1] = set-up: species or system mice; conditions: mouse, in vivo
Experimental: PND7 control and experimental mice were placed in a clear plastic cone and body temperature maintained by a heating blanket set to 35° C. Heart rate (HR) and oxyhemoglobin saturation (SpO2) were continuously monitored using pulse-oximetry (PhysioSuite, Kent Scientific). Arterial blood was collected by terminal cardiac puncture of the left ventricle from sentinels and pH (pHa) determined using a blood gas machine (ABL800 FLEX Series Radiometer). […] Naïve control animals were left with the dams. Control ‘CON’ animals were exposed to oxygen only. Anesthesia was initiated with 2.4% isoflurane in oxygen for 2 min and tapered down to 1.5% within 15 min. Exposure to 1.5% isoflurane was continued for 3 hours and 45 min (total 4 hours ISO). At the end of the exposure animals were maintained in oxygen on the heating blanket for 10 min then returned to dams. […] Tao and Johns, 2008. Purification of fusion peptides was performed by Creative BioMart (Shirley, N.Y.) and verified by Coomassie blue staining and Western blot analysis and then stored in 10% glycerol/phosphate-buffered saline at −80° C. until use. The Tat-PSD-95 PDZ2WT and MUT plasmids used to generate proteins containing an amino-terminal, in-frame, 11-amino-acid, minimal transduction domain (residues 47-57 of human immunodeficiency virus Tat protein) termed Tat. […] Fang et al., 2003. The NO donor Molsidomine [(N-[ethoxycarbonyl]-3-[4-morpholinosydnomine] (Sigma, St. Louis, Mo.) was injected at 4 mg/kg into mice ip in 100 μL sterile saline as previously described. Control animals were injected ip with the vehicle (saline).

neuron cultures = assay: Neuron cultures, synapses (PSD95/Synaptophysin puncta) at DIV14; format: cell-based; conditions: isoflurane exposure at DIV7, stained at DIV14
Experimental: Neuron cultures were transfected with GFP-AAV virus at DIV-4 and were exposed to NO donor (DETA) 150 μM and sGC inhibitor (ODQ) 100 μM for 4 hrs right before exposure to gases at DIV7. Cells were returned back to incubator with half media change every second day. At DIV14, cells were fixed and stained with PSD95 and Synaptophysin. […] Scale bar is 5 μm. FIG. 23B: Synapse were analyzed using puncta analyzer plugin as shown in methods section.

C57BL6 mice = assay: Novel object recognition at PND21; format: in vivo; conditions: mean ±SD, in s (unit assumed)
Experimental: 1.3.2 Anesthesia, Peptide, and Molsidomine Injections. PND7 control and experimental mice were placed in a clear plastic cone and body temperature maintained by a heating blanket set to 35° C. Vital signs and physiological monitoring were assessed using PhysioSuite® (Kent Scientific Corporation, Torrington, Conn., USA) and blood gasses were collected arterially. […] Note that lower concentrations of 02 can be used, e.g., between 20% to 100% 02, including 20%, 25%, 30%, 35%, 40%, 45%, 50%, 55%, 60%, 65%, 70%, 75%, 80%, 85%, 90%, 95%, 96%, 97%, 98%, 99%, and 100% 02. Naïve animals were left with the dams. Anesthesia was initiated with 2.4% ISO in 100% oxygen for 2 min and tapered down to 1.5% within 15 min. Exposure to 1.5% ISO was continued for 3 hours and 45 min (total 4 hours ISO). Control ‘CON’ animals were exposed to 100% oxygen only. At the end of the exposure animals were maintained in oxygen on the heating blanket for 10 min then returned to dams. […] Tao and Johns, 2008. A single injection of peptide was given ip. Separate peptide cohorts were injected in parallel with mice undergoing exposure to anesthesia or O2 control. Purification of fusion peptides was performed by Creative BioMart (Shirley, N.Y.) and verified by Coomassie blue staining and Western blot analysis and then stored in 10% glycerol/phosphate buffered saline at −80° C. until use. The Tat-PSD-95 PDZ2WT and MUT plasmids used to generate proteins containing an amino-terminal, in-frame, 11-amino-acid, minimal transduction domain (residues 47-57 of human immunodeficiency virus Tat protein) termed Tat. […] Fang et al., 2003. The NO donor molsidomine [(N-[ethoxycarbonyl]-3-[4-morpholinosydnomine] (Sigma, St. Louis, Mo.) was injected at 4 mg/kg into mice ip in 100 μL sterile saline as previously described. The NO donor was added immediately following cessation of anesthesia or control (O2) exposure, i.e., the NO donor was injected 4 hours after onset of anesthesia. One of ordinary skill in the art upon review of the present disclosure would appreciate that the NO donor could be administered at other times during anesthesia, including at the onset of anesthesia. Control animals were injected ip with the vehicle (saline).
1.3.7 Novel Object Recognition. The novel object recognition (NOR) procedure was based upon the original Ennaceur et al., 1988, procedure and was used to assess nonspatial hippocampal memory. Clark et al., 2000; Baker and Kim, 2002; Reger et al., 2009. It consisted of a training ‘familiarization’ phase followed by a testing phase. During training, mice were allowed to freely explore within an opaque box (40 cm W×40 cm L×34 cm H) containing two identical objects for 10 min. Data were recorded with a video camera and time spent with each object was recorded using ANYmaze software (Stoelting). Object investigation time was determined by the amount of time the mouse spent in the zone immediately surrounding the object. […] After 2 h, object recognition was tested, using the same procedure as in training except that a novel object was substituted for one of the familiar training objects and mice were allowed to explore for 5 min. Mice inherently prefer to explore novel objects; thus, a preference for the novel object indicates intact memory for the familiar object.

[2] = tested on: PSD-95 or PSD-93 and the NMDA receptor or nNOS; conditions: clinically relevant concentrations; Fang et al., 2003; Tao et al., 2015; cited from earlier work
[3] = PSD93KO mice exposed to ISO at PND7, tested at PND21
[4] = WT mice exposed at PND7, tested at PND21

## FC(F)OC(Cl)C(F)(F)F (racemic) [ISO, (RS)-2-chloro-2-(difluoromethoxy)-1,1,1-trifluoroethane]
NR1
  amount of NR1 in synaptic fractions: decrease
NR2B
  amount of NR2B in synaptic fractions: significant increase
SAP102
  amount of SAP102 in synaptic fractions: significant increase
[1]
  arterial blood pH (pHa): 7.26±0.05
  heart rate (HR): 611±84
  oxyhemoglobin saturation (SpO2): 93±6
Neuron cultures
  synapses at DIV14 after exposure: loss of synapse
C57BL6 mice; [3]
  investigation time of the known object: 29±13
  investigation time of the novel object: 42±20
C57BL6 mice; [4]
  investigation time of the known object: 18±12
  investigation time of the novel object: 29±11
[2]
  PDZ domain-mediated protein interactions: can disrupt PDZ domain-mediated protein-protein interactions in vitro and in vivo
